Measured values taken from patent publication US20130156845A1, “LIPID FORMULATED SINGLE STRANDED RNA” (ALNYLAM PHARMACEUTICALS, INC., priority 2010, published 2013).
Read-outs that look alike come from different tables or passages of the source. Strand notation (5' to 3'): a small letter for the sugar, then the base; units joined by * are phosphorothioate-linked, units joined directly phosphodiester-linked; [ ] holds rarer units or linkages, { } end groups; capitals alone tell only the bases. {PS2} = PS2 group (structure drawn in the publication); {PS} = PS group (structure drawn in the publication); e = 2'-O-(2-methoxyethyl) (MOE); m = 2'-O-methyl; {P} = phosphate; f = 2'-fluoro

Key:
human PTEN = assay: PTEN expression in HeLa cells, ssRNAs vs siRNAs (Example 62); format: cell-based
Protocol: A series of 5′ and 2′ bis-substituted modified oligomeric compounds were prepared as single strand RNAs (ssRNAs). The antisense (AS) strands listed below were designed to target human PTEN, and each was also assayed as part of a duplex with the same sense strand (ISIS 341401, shown below) for their ability to reduce PTEN expression levels. HeLa cells were treated with the single stranded or double stranded oligomeric compounds created with the antisense compounds shown below using methods described herein. The IC50's were calculated using the linear regression equation generated by plotting the normalized mRNA levels to the log of the concentrations used.

PTEN [1] = assay: PTEN mRNA reduction in HeLa cells, dose response (Example 72); format: cell-based, human; details: percent inhibition of PTEN mRNA, 0.167-50 nM
Protocol: In accordance with the present disclosure, oligomeric compounds were synthesized and tested for their ability to reduce PTEN expression over a range of doses. Human HeLa cells were treated with the following oligomeric compounds. A dose comparison was evaluated with dose concentrations of 0.167, 0.5, 1.5, 5, 15 and 50 nM using methods described herein. Expression levels of PTEN were determined using real-time PCR and normalized to RIBOGREEN™ using methods described herein. The percent inhibition of PTEN mRNA was determined and the resulting dose-response curves were used to determine the IC50. The IC50s are listed below.

PTEN [2] = assay: In vivo evaluation of ssRNA formulated in lipid particle LNP06, liver PTEN mRNA (Example 77); set-up: species or system mouse; details: ssRNA formulated in LNP06, 4.5 mg/kg tail vein, C57BL/6 mice, liver PTEN mRNA normalized to GAPDH, 2 days post injection
Protocol: In accordance with the present disclosure, oligomeric compounds were synthesized and tested for their ability to reduce PTEN. C57BL/6 mice (Charles River Labs, MA) received either saline or LNP formulated single stranded RNA via tail vein injection at a volume of 0.01 mL/g and the single stranded RNA dose is 4.5 mg/kg. 25 groups of female mice and 9 modified ssRNAs targeting PTEN were formulated in LNP06 and tested. To determine liver mRNA levels of PTEN, 2 days post injection, animals were sacrificed and livers were harvested and snap frozen in liquid nitrogen. Liver lysates were prepared from the frozen tissues and liver mRNA levels of PTEN normalized to GAPDH were quantified using a branched DNA assay (QuantiGene Assay, Panomics, Calif.).

PTEN [3] = assay: PTEN mRNA reduction in HeLa cells, dose response (Example 64); format: cell-based, human; details: real-time PCR, 1.56-50 nM
Protocol: A dose response experiment was performed targeting PTEN in human HeLa cells to determine the effects of placement of sugar and internucleoside linkages within ssRNAs. More specifically, the modified ssRNAs were tested for their ability to reduce PTEN mRNA in cultured cells. The modified ssRNAs are shown below, and contain 2′-OMe and 2′-fluoro modified nucleosides, two 2′-O-MOE modified nucleosides at the 3′-terminus, and seven phosphorothioate linkages at the 3′-terminus of the ssRNAs.
HeLa cells were treated with ssRNAs shown below at concentrations of 1.56 nM, 3.13 nM, 6.25 nM, 12.5 nM, […] and 50 nM using methods described herein. Levels of mRNA were determined using real-time PCR methods as described herein. The IC50 for each ssRNA was determined.

[4] = ssRNA stability in hepatocyte cell homogenate assay (Example 65); format: in vitro ADME; details: mouse hepatocyte homogenate, LC-MS
Protocol: Hepatocytes were harvested from bal/c mice in ice-cold hepatocyte wash media (William E Media) with fetal bovine serum, sedimented by centrifugation at 1000 g for 8 minutes and then washed with hepatocyte wash media. Hepatocytes were homogenized with RIPA buffer (50 mM Tris pH 7.5, 10 mM MgCl2, 150 mM NaCl, 0.5% NP-40 alternative, one tablet of Roche protease inhibitor #11836170001), and centrifuged at 14000 g for 15 minutes at 4° C. and the supernatant was removed and stored in ice. Protein concentration (BSA mg/mL) was determined with Bradford assay and adjusted to a final protein concentration of 2 mg/mL by addition of Ripa buffer volume or cell homogenate volume.
[…] were homogenized in a homogenation buffer (20 mM Tris, pH 8, 20 mM EDTA and 0.1 M NaCl in 0.5% NP-40) at time points 0, 5, 10, 20, 30, 40 and 60 minutes (Exception: 06/408877 at time points 0, 15, 30, 60, 120 and 240 mins, 06/409044, at time points 0, 0.5, 1, 2, 4, 8, and 18 hours). An internal standard (18/355868, a 27-mer, 2′-O-methoxyethyl-modified phosphorothioate oligonucleotide, or 19/116847, a 5-10-5 gappmer, 2′-O-methoxyethyl-modified phosphorothioate oligonucleotide) with concentration at 20 ug/g was added prior to extraction. Tissue samples were extracted with 70 μL of NH4OH and 240 μL of phenol/chloroform/isoamyl alcohol (25:24:1). The supernatant was removed after centrifugation at 14000 rpm for 2 min. The remaining extractant was vortexed with an additional […] of water and the aqueous layer was removed and combined with the supernatant after centrifugation at 14000 rpm for 2 minutes.
Triethylammonium acetate solution at 1M ([…]) was added to the supernatant. The aqueous layer of the mixture was loaded onto the pre-conditioned Biotage™ Phenyl Solid Phase Extraction Plate (SPE plate) after centrifugation at 9000 rpm for 20 minutes. The SPE plate was washed several times with water. The sample was then eluted with 1.5 mL of 1% TEA in 90% MeOH and filtered through the Protein Precipitation Plate (Phenomenex™). The elutent was evaporated to dryness and diluted to 200 μL with 50% quenching buffer (8 M urea, 50 mM EDTA) and water before sample injection.
An Agilent 1100 Series LC/MSD system was connected in-line to a mass spectrometry. Mass spectrometer was operated in the electrospray negative ionization mode. The nebulizer nitrogen gas was set at […] and the drying nitrogen gas was set at 12 L/min. The drying temperature was 325° C. Samples (25 μL/well) were introduced via an auto sampler and reversed-phase chromatography was carried out with an XBridge OST C18 2.5 μm 2.1 mm×50 mm HPLC column using a flow rate of 300 μL/min at 55° C. The ion pair buffers consisted of A: 5 mM tributylammonium acetate (TBAA) in 20% acetonitrile and B: […] TBAA in 90% acetonitrile and the loading buffer was 25 mM TBAA in 25% Acetonitrile. Separation was performed on a 30% to 70% B in 9 min and then 80% B in 11 min gradient.
Quantitative analysis of oligonucleotide and internal standard by extracted ion chromatograms of the most abundant ions was performed using MSD ChemStation software. The results are expressed as half-time (T1/2) in the table below.

PTEN [5] = assay: Liver PTEN mRNA in Balb/c mice, unformulated oligomeric compounds (Example 70); format: in vivo, mouse; details: 48 h
Protocol: Six-week-old male Balb/c mice (Jackson Laboratory, Bar Harbor, Me.) were injected intraperitenially with a single dose of 75 mg/kg of one of the three oligomeric compounds above or with saline control. Each dose group consisted of four animals. The mice were sacrificed 48 hours following administration. Livers were collected and PTEN mRNA levels were assessed using real-time PCR and RIBOGREEN® RNA quantification reagent (Molecular Probes, Inc. Eugene, Oreg.) according to standard protocols. PTEN mRNA levels were determined relative to total RNA (using Ribogreen), and normalized to the saline-treated control. Results are listed below as the average % inhibition of PTEN mRNA expression for each treatment group, normalized to saline-injected control.

Row | Substance | % Kd (PTEN [2]) | IC50 (PTEN [3]) | T1/2 Test 1 [4] | other results
1 | P-TdUfGmUfCmUfCmUfGmGfUmCfCmUfUmAfCmUfUmAeAe (antisense TUGUCUCUGGUCCUUACUUAA; 5'-phosphate, chemical modifications, chemistry not fully specified) [ISIS 435397, modified ssRNA targeting PTEN] | 44% |  |  | EC50 (human PTEN; antisense strand duplexed with sense strand ISIS 341401, PTEN mRNA, read-out: EC50 (nM) siRNA): 0.4 nM; EC50 (human PTEN; single stranded antisense compound, PTEN mRNA, read-out: EC50 (nM) ssRNA): 2 nM; IC50 (PTEN [1]): 2 nM
2 | P-TmoeUfGmUfCmUfCmUfGmGfUmCfCmUfUmAfCmUfUmAeAe (antisense {P}-eT*fU*mGfU*mCfU*mCfU*mGfG*mUfC*mCfU*mU*fA*mC*fU*mU*eA*eA) [A-53286, modified ssRNA targeting PTEN] | 67% |  |  | 
3 | P-USSUfGmUfCmUfCmUfGmGfUmCfCmUfUmAfCmUfUmAeAe (antisense TUGUCUCUGGUCCUUACUUAA; 5'-phosphate, 2'-F/2'-OMe, MOE modifications, chemistry not fully specified) [ISIS 467088, modified ssRNA targeting PTEN] | 50% |  |  | 
4 | P-UfUfGfUfCfUfCmUfGmGfUmCfCmUfUmAfCmUfUmTeTe (antisense UUGUCUCUGGUCCUUACUUTT; 5'-phosphate, modified nucleotides, chemistry not fully specified) [ISIS 409049, modified ssRNA targeting PTEN] |  | 16.2 nM | 13 min | 
5 | P-UfUfGfUfCfUmCmUfGfGmUmCfCfUfUfAfCmUmUmAeAe (antisense UUGUCUCUGGUCCUUACUUAA; sugars from the 5' end fffffmmffmmfffffmmmee, 5' {P}, backbone not given here) [ISIS 408874, modified ssRNA targeting PTEN] |  | 6 nM | 22 min | T1/2 Test 2 [4]: 18 min
6 | P-UfUfGfUfCfUmCmUfGfGmUmCfCfUfUfAfCmUmUmTeTe (antisense UUGUCUCUGGUCCUUACUUTT; 5'-phosphate, modified nucleotides, chemistry not fully specified) [ISIS 409062, modified ssRNA targeting PTEN] |  | 8.6 nM | 17 min | 
7 | P-UmUfGfUfCfUmCmUfGfGmUmCfCfUfUfAfCmUmUmAeAe (antisense UUGUCUCUGGUCCUUACUUAA; sugars from the 5' end mffffmmffmmfffffmmmee, 5' {P}, backbone not given here) [ISIS 408877, modified ssRNA targeting PTEN] |  | 7 nM | 30 min | T1/2 Test 2 [4]: 24 min
8 | P-UmUfGmUfCmUfCmUfGmGfUmCfCmUfUmAfCmUfUmAeAe (antisense UUGUCUCUGGUCCUUACUUAA; sugars from the 5' end mfmfmfmfmfmfmfmfmfmee, 5' {P}, backbone not given here) [ISIS 409044, modified ssRNA targeting PTEN] |  | 10.5 nM | 240 min | T1/2 Test 2 [4]: 258 min
9 | PS2-TmoeUfGmUfCmUfCmUfGmGfUmCfCmUfUmAfCmUfUmAeAe (antisense {PS2}-eT*fU*mGfU*mCfU*mCfU*mGfG*mUfC*mCfU*mU*fA*mC*fU*mU*eA*eA) [A-59890, modified ssRNA targeting PTEN] | 31% |  |  | 
10 | PS-TmoeUfGmUfCmUfCmUfGmGfUmCfCmUfUmAfCmUfUmAeAe (antisense {PS}-eT*fU*mGfU*mCfU*mCfU*mGfG*mUfC*mCfU*mU*fA*mC*fU*mU*eA*eA) [A-59889, modified ssRNA targeting PTEN] | 45% |  |  | 
11 | UfUfGfUfCfUfCmUfGmGfUmCfCmUfUmAfCmUfUmAeAe (UUGUCUCUGGUCCUUACUUAA; sugars from the 5' end ffffffmfmfmfmfmfmfmee, backbone not given here) [ISIS 407047, modified ssRNA targeting PTEN] |  | 3.5 nM | 6 min | 
12 | ^meCeTeGe^meCeTeAG^meC^meCT^meCTGGATeTeTeGeAe [ISIS 116847, reference compound] |  |  |  | inhibition of PTEN (PTEN [5]; 75 mg/kg, liver): potent inhibitor of PTEN; % inhibition (PTEN [5]; liver PTEN mRNA, single i.p. dose 75 mg/kg, normalized to saline control): 76%
